In patent publication US9606132B2, “Methods of monitoring adherence to lurasidone therapy” (Ameritox, Ltd., priority 2013, dated 2017):
Where two headings read alike, the source gives them in different places. Values belong to the molecule of their own block, whether it stands above or below them.

Columns and labels:
[1] = in vivo
Method: Urine samples of normally metabolizing human subjects who were known to be taking chronic doses of lurasidone were tested for the presence of lurasidone and eleven metabolites (excluding isomeric metabolites). Each patient sample was analyzed twice to ensure accuracy. Due to the high probability for false identification of isobars, MS/MS data was collected and selectively looked at to add confidence to the identification.

[2] = cited from earlier work; for presence in serum: mice, rats, dogs (M8 also monkeys), 10 mg/kg oral administration of radiolabelled lurasidone
[3] = cited from earlier work; for presence in serum: 40 mg oral dosing of radiolabelled lurasidone

SMILES: CSc1ccccc1C(=N)N1CCN(CC2CCCCC2CN2C(=O)C3C(C2=O)[C@H]2CC[C@@H]3C2)CC1 (some centres unmarked) [M21, S-Methyl Lurasidone]
detectability in human urine (Example 1) [1]: present in detectable quantities in each test of each subject's urine sample
detection as circulating metabolite in serum ([2]; any of the animal models, radiolabelled lurasidone): did not detect

Lurasidone Metabolite Distribution in Human Urine (qualitative identification) [1]: ✓*
SMILES: O=C(O[C@@H]1O[C@H](C(=O)O)[C@@H](O)[C@H](O)[C@H]1O)C1CCCCC1CN1C(=O)C2C(C1=O)[C@H]1CC[C@@H]2C1 (some centres unmarked) [M11 Gluc]

SMILES: O=C(O)C1CCCCC1CN1C(=O)C2C(C1=O)[C@@H]1CC[C@H]2C1O (some centres unmarked) [M5]
detectability in human urine (Example 1) ([1]; human): neither metabolite ID-20220 (M5) nor metabolite ID-20219 (M11) were found to be excreted through human urine in detectable amounts

SMILES: O=C1C2C(C(=O)N1CC1CCCCC1CN1CCN(c3nsc4ccccc34)CC1)[C@@H]1CC[C@H]2C1O (some centres unmarked) [M9]
identification in serum ([2]; rats and dogs): identified in rats and dogs

SMILES: O=C1C2C(C(=O)N1CC1CCCCC1CN1CCN(c3nsc4ccccc34)CC1)[C@@H]1CC[C@H]2C1O (some centres unmarked) [M8]
presence in serum [2]: present in an unspecified low amount
presence in serum ([3]; humans): present in an unspecified low amount

detectability in human urine (Example 1) [1]: not present at any significant amount
SMILES: O=C1C2C(C(=O)N1CC1CCCCC1CN1CCN(c3n[s+]([O-])c4ccccc34)CC1)[C@H]1CC[C@@H]2C1 (some centres unmarked) [M10]

Lurasidone Metabolite Distribution in Human Urine (qualitative identification) [1]: ✓^*
SMILES: O=C(O)C1CCCCC1CN1C(=O)C2C(C1=O)[C@H]1CC[C@@H]2C1 (some centres unmarked) [M11, 2-{(3,5-Dioxo-4-azatricyclo[5.2.1.0^2,6]dec-4-yl)methyl}cyclohexanecarboxylic acid]
detectability in human urine (Example 1) ([1]; human): neither metabolite ID-20220 (M5) nor metabolite ID-20219 (M11) were found to be excreted through human urine in detectable amounts
share of total radioactivity in plasma ([3]; plasma, post oral dosing): 24%

SMILES: O=C1C2C(C(=O)N1CC1CCCCC1CN1CCN(c3nsc4ccccc34)CC1)[C@@H]1CC[C@H]2C1O (some centres unmarked) [M8/M9, Hydroxy-Lurasidone]
detectability in human urine (Example 1) [1]: present in detectable quantities in each test of each subject's urine sample

SMILES: [H]/N=C(/c1ccccc1SC)N1CCN(CC2CCCCC2CN2C(=O)C3C(C2=O)[C@@H]2CC[C@H]3C2O)CC1 (some centres unmarked) [M22, S-Methyl Hydroxy Lurasidone]
detectability in human urine (Example 1) [1]: present in detectable quantities in each test of each subject's urine sample
presence in serum [2]: present in an unspecified low amount
detection in other animal models ([2]; rabbits or monkeys): not detected in any amount
presence in serum ([3]; humans): present in an unspecified low amount
share of total drug-related exposure ([3]; humans): less than 10%
